{"source": "patent US20050215621A1", "about": "“Method of treating amyloid beta precursor disorders” (Andrx Labs, LLC, priority 1999, published 2005)", "key": {"[1]": {"system": "Human neuroglioma (H4) cells overexpressing the 695 form of human APP", "assay": "APP processing ([35S]-labeled APPs and APPm) in H4 cells", "type": "cell-based", "experimental": "(§1) The three cell lines utilized were: Chinese Hamster Ovary (CHO) cells expressing the 751 amino acid form of APP; Mabin-Darby Canine Kidney (MDCK) cells which overexpress the 695 amino acid form of APP; Human neuroglioma (H4) cells overexpressing the 695 form of human APP. All cells were prepared by the stable introduction of a cDNA coding for human APP. All cell lines were maintained in DMEM containing 10% FBS and antibiotics.\nFor measurement of APP processing and Aβ peptide formation, medium was removed and the cells were washed once with PBS and then incubated for 2 hours in DMEM containing 1 mCi/ml [^35S] Methionine. […]\nThe incubations with antibody 6E10 or antibody 369 were performed at 4° C. for 75 minutes followed by a 45 minute incubation at 4° C. with either agarose-linked anti-mouse IgG for antibody 6E1O or protein A sepharose for antibody 369. […] The protein bands were visualized on a STORM 860 Phosphor Imager® (Molecular Dynamics) and quantitated using ImageQuant® (Molecular Dynamics).\nTo determine whether cholesterol depletion affects other aspects of APP processing, H4 cells were incubated for four days in the presence or absence of 0.5 μM LA, and subjected to metabolic labeling. The levels of [^35S]-labeled APPi and APPm were determined by immunoprecipitation from cell lysates with an antibody against the COOH-terminal of APP, followed by quantitative autoradiography. […]"}, "[2]": {"system": "H4, MDCK, and CHO cells, expressing human APPm", "assay": "[35S]-Met pulse-chase, immunoprecipitation (antibody 6E10) and autoradiography of Aβ peptides after 4 days with compound", "type": "cell-based, canine, Chinese hamster", "settings": "for decrease of extracellular Aβ peptides as compared to the untreated cells: 0.5 μM, 4 days, H4, MDCK, CHO cells", "experimental": "as §1\nIn order to characterize the effects of cholesterol depletion, cell cultures of each cell line were cultured on six-well plates for 4 days in DMEM containing 10% FCLPDS, in the presence of lovastatin or lovastatin acid (LA).\nFor measurement of APP processing and Aβ peptide formation, medium was removed and the cells were washed once with PBS and then incubated for 2 hours in DMEM containing 1 mCi/ml [^35S] Methionine. After this “pulse” period, the cells were either (1) lysed to measure the total labeled APPi and APPm at time zero, or (2) the cells were incubated for 2 hours in fresh, unlabeled complete medium (“chase”) and then lysed. Then the cell supernatants and lysates were treated with the appropriate antibody to calculate the amounts of APPi, APPm, APPs, and Aβ peptides.\nTo measure Aβ peptides, or to measure APPs, which is the secreted carboxyl-terminal truncated form, cell supernatants were incubated with antibody 6E10,which recognizes the first 15 amino acids of the Aβ peptide that correspond to the COOH-terminal amino acids of APPs. See Buxbaum, J. D., et al. (I 994) Proc Natl Acad Sci USA, 91:4489-93, which is incorporated herein by reference.\nThe incubations with antibody 6E10 or antibody 369 were performed at 4° C. for 75 minutes followed by a 45 minute incubation at 4° C. with either agarose-linked anti-mouse IgG for antibody 6E1O or protein A sepharose for antibody 369. The beads were then washed three times for 10 minutes and then run on either a 10-20% Tris-Tricine Gel for APPs and Aβ peptides or an 8% polyacrylamide gel for cell-associated APP. The gels were dried and exposed to a Phosphor Imager® screen (STORM 860, Molecular Dynamics) and exposed for a minimum of two days. The protein bands were visualized on a STORM 860 Phosphor Imager® (Molecular Dynamics) and quantitated using ImageQuant® (Molecular Dynamics).\nTo determine whether a decrease in cholesterol is associated with a change in the amount of extracellular Aβ peptides, the H4, MDCK, and CHO cells, expressing human APPm were incubated for 4 days in the presence or absence of 0.5 μM LA. The cells were then incubated in serum-free media containing 1 mCi/mi [^35S] […] Relative levels of extracellular Aβ peptides were determined under each condition by quantitative PhosphorImager autoradiography. […]"}}}
{"smiles": "CC[C@H](C)C(=O)O[C@H]1C[C@@H](C)C=C2C=C[C@H](C)[C@H](CC[C@@H](O)C[C@@H](O)CC(=O)O)[C@H]21", "note": "[LA, lovastatin acid]", "values": [{"measurement": "effects on maturation ([35S]-labeled APPm levels)", "setting": "[1]; 0.5 μM LA (FIG. 6)", "value": "not sufficient to account for the decrease in Aβ peptide levels"}, {"measurement": "[35S]-labeled APPs formation compared to control cells", "setting": "[1]; H4 cells, 0.5 μM LA, 4 days (FIG. 5)", "value": "modest decrease"}, {"measurement": "[35S]-labeled intracellular Aβ peptides in cell lysates", "setting": "[2]; 0.5 μM LA", "value": "No detectable levels"}, {"measurement": "decrease of extracellular Aβ peptides as compared to the untreated cells", "setting": "[2]", "value": "40-60%"}, {"measurement": "concentration sufficient to significantly (p<0.001) decrease extracellular Aβ peptides", "setting": "[2]; each cell type, various LA concentrations", "value": "≥ 0.05", "unit": "µM"}]}
{"smiles": "CC[C@H](C)C(=O)O[C@H]1C[C@@H](C)C=C2C=C[C@H](C)[C@H](CC[C@@H]3C[C@@H](O)CC(=O)O3)[C@H]21", "note": "[lovastatin]", "values": [{"measurement": "decrease of extracellular Aβ peptides as compared to the untreated cells", "setting": "[2]", "value": "< 20", "unit": "%"}]}
